From ChEMBL document CHEMBL4330132, “5-Keto-3-cyano-2,4-diaminothiophenes as selective maternal embryonic leucine zipper kinase inhibitors” (Bioorg Med Chem Lett, 2019)

Tests used:
[1] = system: Tyrosine-protein kinase ABL1 (Homo sapiens), P00519 [H396P]; experiment: Binding affinity to human non-phosphorylated ABL1 H396P mutant (S229 to K512 residues) expressed in mammalian expression system assessed as residual binding level at 1 uM by Kinomescan method relative to control
[2] = molecular target: Tyrosine-protein kinase BTK (Homo sapiens) (UniProt Q06187); experiment: Binding affinity to wild-type human full length BTK (M1 to S659 residues) expressed in mammalian expression system assessed as residual binding level at 1 uM by Kinomescan method relative to control
[3] = molecular target: Peripheral plasma membrane protein CASK (Homo sapiens) (UniProt O14936); experiment: Binding affinity to wild-type human partial length CASK (M1 to H315 residues) expressed in mammalian expression system assessed as residual binding level at 1 uM by Kinomescan method relative to control
[4] = molecular target: Serine/threonine-protein kinase Chk2 (Homo sapiens) (UniProt O96017); experiment: Binding affinity to wild-type human partial length CHEK2 (S253 to E574 residues) expressed in bacterial expression system assessed as residual binding level at 1 uM by Kinomescan method relative to control
[5] = molecular target: Casein kinase I isoform delta (Homo sapiens) (UniProt P48730); experiment: Binding affinity to wild-type human full length CSNK1D (M1 to K409 residues) expressed in bacterial expression system assessed as residual binding level at 1 uM by Kinomescan method relative to control
[6] = molecular target: Epithelial discoidin domain-containing receptor 1 (Homo sapiens) (UniProt Q08345); experiment: Binding affinity to wild-type human partial length DDR1 (R565 to V876 residues) expressed in bacterial expression system assessed as residual binding level at 1 uM by Kinomescan method relative to control
[7] = system: Epidermal growth factor receptor (Homo sapiens), P00533 [T790M]; experiment: Binding affinity to human partial length EGFR T790M mutant (R669 to G1022 residues) expressed in mammalian expression system assessed as residual binding level at 1 uM by Kinomescan method relative to control
[8] = molecular target: Vascular endothelial growth factor receptor 1 (Homo sapiens) (UniProt P17948); experiment: Binding affinity to wild-type human partial length FLT1 (R781 to F1239 residues) expressed in bacterial expression system assessed as residual binding level at 1 uM by Kinomescan method relative to control
[9] = system: Receptor-type tyrosine-protein kinase FLT3 (Homo sapiens), P36888 [D835Y]; experiment: Binding affinity to human partial length FLT3 D835Y mutant (Q580 to Y969 residues) expressed in bacterial expression system assessed as residual binding level at 1 uM by Kinomescan method relative to control
[10] = molecular target: Inhibitor of nuclear factor kappa-B kinase subunit epsilon (Homo sapiens) (UniProt Q14164); experiment: Binding affinity to wild-type human full length IKK-epsilon (M1 to V716 residues) expressed in mammalian expression system assessed as residual binding level at 1 uM by Kinomescan method relative to control
[11] = molecular target: Tyrosine-protein kinase JAK1 (Homo sapiens) (UniProt P23458); experiment: Binding affinity to wild-type human partial length JAK1 JH2 pseudokinase domain (R537 to D855 residues) expressed in mammalian expression system assessed as residual binding level at 1 uM by Kinomescan method relative to control
[12] = system: Mast/stem cell growth factor receptor Kit (Homo sapiens), P10721 [D816V]; experiment: Binding affinity to human partial length KIT D816V mutant (I571 to D952 residues) expressed in bacterial expression system assessed as residual binding level at 1 uM by Kinomescan method relative to control
[13] = molecular target: Mitogen-activated protein kinase kinase kinase 1 (Homo sapiens) (UniProt Q13233); experiment: Binding affinity to wild-type human partial length MAP3K1 (L1202 to W1512 residues) expressed in mammalian expression system assessed as residual binding level at 1 uM by Kinomescan method relative to control
[14] = molecular target: MAP/microtubule affinity-regulating kinase 3 (Homo sapiens) (UniProt P27448); experiment: Binding affinity to wild-type human full length MARK3 (M1 to L729 residues) expressed in bacterial expression system assessed as residual binding level at 1 uM by Kinomescan method relative to control
[15] = molecular target: Dual specificity mitogen-activated protein kinase kinase 6 (Homo sapiens) (UniProt P52564); experiment: Binding affinity to wild-type human partial length MEK6 (K36 to D334 residues) expressed in bacterial expression system assessed as residual binding level at 1 uM by Kinomescan method relative to control
[16] = molecular target: Dual specificity mitogen-activated protein kinase kinase 7 (Homo sapiens) (UniProt O14733); experiment: Binding affinity to wild-type human full length MKK7 (M1 to R419 residues) expressed in mammalian expression system assessed as residual binding level at 1 uM by Kinomescan method relative to control
[17] = molecular target: Serine/threonine-protein kinase 3 (Homo sapiens) (UniProt Q13188); experiment: Binding affinity to wild-type human partial length MST2 (D17 to E318 residues) expressed in bacterial expression system assessed as residual binding level at 1 uM by Kinomescan method relative to control
[18] = molecular target: Serine/threonine-protein kinase Nek11 (Homo sapiens) (UniProt Q8NG66); experiment: Binding affinity to wild-type human partial length NEK11 (M1 to E313 residues) expressed in mammalian expression system assessed as residual binding level at 1 uM by Kinomescan method relative to control
[19] = molecular target: Serine/threonine-protein kinase PAK 2 (Homo sapiens) (UniProt Q13177); experiment: Binding affinity to wild-type human partial length PAK2 (P151 to R525 residues) expressed in bacterial expression system assessed as residual binding level at 1 uM by Kinomescan method relative to control
[20] = molecular target: Cyclin-dependent kinase 16 (Homo sapiens) (UniProt Q00536); experiment: Binding affinity to wild-type human partial length PCTK1 (G160 to A474 residues) expressed in mammalian expression system assessed as residual binding level at 1 uM by Kinomescan method relative to control
[21] = system: Phosphatidylinositol 4,5-bisphosphate 3-kinase catalytic subunit alpha isoform (Homo sapiens), P42336 [M1043I]; experiment: Binding affinity to human partial length PIK3CA M1043I mutant (R108 to N1068 residues) expressed in mammalian expression system assessed as residual binding level at 1 uM by Kinomescan method relative to control
[22] = molecular target: Membrane-associated tyrosine- and threonine-specific cdc2-inhibitory kinase (Homo sapiens) (UniProt Q99640); experiment: Binding affinity to wild-type human partial length PKMYT1 (A88 to G366 residues) expressed in bacterial expression system assessed as residual binding level at 1 uM by Kinomescan method relative to control
[23] = molecular target: Serine/threonine-protein kinase TAO2 (Homo sapiens) (UniProt Q9UL54); experiment: Binding affinity to wild-type human partial length TAOK2 (M1 to A320 residues) expressed in mammalian expression system assessed as residual binding level at 1 uM by Kinomescan method relative to control
[24] = molecular target: TRAF2 and NCK-interacting protein kinase (Homo sapiens) (UniProt Q9UKE5); experiment: Binding affinity to wild-type human partial length TNIK (D4 to K311 residues) expressed in bacterial expression system assessed as residual binding level at 1 uM by Kinomescan method relative to control

Chain of Epithelial discoidin domain-containing receptor 1 (Homo sapiens) (Q08345 whole entry, the tested form may be a part): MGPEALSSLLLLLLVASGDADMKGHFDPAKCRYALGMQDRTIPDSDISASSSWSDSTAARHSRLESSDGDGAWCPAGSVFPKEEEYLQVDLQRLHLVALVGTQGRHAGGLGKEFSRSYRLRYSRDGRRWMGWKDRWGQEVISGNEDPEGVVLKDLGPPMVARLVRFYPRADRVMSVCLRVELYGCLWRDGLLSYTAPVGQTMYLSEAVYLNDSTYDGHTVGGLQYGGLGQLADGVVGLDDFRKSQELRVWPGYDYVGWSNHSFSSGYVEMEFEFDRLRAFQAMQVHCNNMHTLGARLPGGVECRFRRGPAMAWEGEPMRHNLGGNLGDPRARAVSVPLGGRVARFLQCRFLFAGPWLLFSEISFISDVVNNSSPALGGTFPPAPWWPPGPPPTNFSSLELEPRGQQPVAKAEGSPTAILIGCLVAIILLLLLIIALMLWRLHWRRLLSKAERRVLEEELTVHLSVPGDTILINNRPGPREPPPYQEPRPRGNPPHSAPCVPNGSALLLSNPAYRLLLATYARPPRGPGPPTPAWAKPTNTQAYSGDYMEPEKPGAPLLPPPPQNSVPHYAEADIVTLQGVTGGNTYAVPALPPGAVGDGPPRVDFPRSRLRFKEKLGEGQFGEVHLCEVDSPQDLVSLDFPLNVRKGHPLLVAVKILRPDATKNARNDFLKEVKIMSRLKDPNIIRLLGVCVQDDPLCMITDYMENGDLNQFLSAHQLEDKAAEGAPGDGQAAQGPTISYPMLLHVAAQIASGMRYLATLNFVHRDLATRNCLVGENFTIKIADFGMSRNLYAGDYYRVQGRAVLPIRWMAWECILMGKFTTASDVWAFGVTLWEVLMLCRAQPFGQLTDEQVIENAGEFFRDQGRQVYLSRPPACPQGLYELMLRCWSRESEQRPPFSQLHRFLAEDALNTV
Chain of Peripheral plasma membrane protein CASK (Homo sapiens) (O14936 whole entry, the tested form may be a part): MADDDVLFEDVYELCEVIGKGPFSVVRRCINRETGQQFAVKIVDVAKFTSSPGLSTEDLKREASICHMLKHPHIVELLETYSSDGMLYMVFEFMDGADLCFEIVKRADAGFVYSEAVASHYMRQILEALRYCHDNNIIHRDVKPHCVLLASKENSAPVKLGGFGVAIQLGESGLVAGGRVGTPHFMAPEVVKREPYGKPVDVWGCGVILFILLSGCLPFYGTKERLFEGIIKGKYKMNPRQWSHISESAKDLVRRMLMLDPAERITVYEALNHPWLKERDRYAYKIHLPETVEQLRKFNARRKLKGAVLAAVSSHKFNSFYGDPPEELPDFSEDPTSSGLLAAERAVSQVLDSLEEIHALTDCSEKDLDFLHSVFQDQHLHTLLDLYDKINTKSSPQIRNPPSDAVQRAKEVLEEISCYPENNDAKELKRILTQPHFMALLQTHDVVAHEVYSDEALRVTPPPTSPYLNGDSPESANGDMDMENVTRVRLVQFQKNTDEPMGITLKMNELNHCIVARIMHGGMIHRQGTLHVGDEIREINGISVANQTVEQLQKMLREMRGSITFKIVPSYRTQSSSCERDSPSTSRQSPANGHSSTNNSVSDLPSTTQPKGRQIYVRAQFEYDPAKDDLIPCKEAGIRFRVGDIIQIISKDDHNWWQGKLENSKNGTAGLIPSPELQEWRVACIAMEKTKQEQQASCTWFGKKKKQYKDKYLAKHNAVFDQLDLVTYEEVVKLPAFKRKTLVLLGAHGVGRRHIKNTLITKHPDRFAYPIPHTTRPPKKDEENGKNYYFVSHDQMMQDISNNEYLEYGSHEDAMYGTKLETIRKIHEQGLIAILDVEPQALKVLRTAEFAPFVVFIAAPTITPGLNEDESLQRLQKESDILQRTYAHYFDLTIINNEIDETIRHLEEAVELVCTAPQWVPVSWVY
Chain of Serine/threonine-protein kinase TAO2 (Homo sapiens) (Q9UL54 whole entry, the tested form may be a part): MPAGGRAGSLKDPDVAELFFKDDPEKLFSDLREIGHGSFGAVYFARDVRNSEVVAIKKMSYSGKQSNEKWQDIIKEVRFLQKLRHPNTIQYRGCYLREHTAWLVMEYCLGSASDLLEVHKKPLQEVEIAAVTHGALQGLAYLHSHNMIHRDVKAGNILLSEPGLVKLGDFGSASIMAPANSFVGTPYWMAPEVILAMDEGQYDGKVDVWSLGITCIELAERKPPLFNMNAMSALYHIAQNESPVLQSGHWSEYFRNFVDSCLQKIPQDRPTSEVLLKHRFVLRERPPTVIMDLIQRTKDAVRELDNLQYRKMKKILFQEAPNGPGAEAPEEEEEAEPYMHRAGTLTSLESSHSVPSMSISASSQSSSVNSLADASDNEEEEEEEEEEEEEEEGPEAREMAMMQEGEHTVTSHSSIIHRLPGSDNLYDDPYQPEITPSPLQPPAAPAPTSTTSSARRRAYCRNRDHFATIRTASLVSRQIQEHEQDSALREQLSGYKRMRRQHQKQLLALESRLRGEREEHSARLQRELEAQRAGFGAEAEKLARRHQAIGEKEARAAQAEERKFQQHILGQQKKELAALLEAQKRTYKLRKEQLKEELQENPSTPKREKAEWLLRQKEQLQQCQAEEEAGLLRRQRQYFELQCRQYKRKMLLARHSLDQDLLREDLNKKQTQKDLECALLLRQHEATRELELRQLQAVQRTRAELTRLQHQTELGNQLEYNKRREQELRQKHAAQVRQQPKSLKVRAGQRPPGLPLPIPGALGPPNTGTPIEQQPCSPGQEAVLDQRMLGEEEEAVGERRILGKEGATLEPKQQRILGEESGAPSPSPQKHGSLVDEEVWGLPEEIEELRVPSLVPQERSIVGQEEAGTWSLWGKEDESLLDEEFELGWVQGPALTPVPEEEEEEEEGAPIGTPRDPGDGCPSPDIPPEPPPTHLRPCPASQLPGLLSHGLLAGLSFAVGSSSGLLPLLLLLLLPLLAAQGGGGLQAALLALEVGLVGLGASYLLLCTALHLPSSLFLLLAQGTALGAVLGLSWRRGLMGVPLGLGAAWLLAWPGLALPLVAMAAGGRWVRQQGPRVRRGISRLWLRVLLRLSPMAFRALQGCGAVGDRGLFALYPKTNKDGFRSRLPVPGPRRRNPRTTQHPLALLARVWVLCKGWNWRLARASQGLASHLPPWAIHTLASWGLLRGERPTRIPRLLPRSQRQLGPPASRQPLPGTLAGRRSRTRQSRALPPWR
Chain of Membrane-associated tyrosine- and threonine-specific cdc2-inhibitory kinase (Homo sapiens) (Q99640 whole entry, the tested form may be a part): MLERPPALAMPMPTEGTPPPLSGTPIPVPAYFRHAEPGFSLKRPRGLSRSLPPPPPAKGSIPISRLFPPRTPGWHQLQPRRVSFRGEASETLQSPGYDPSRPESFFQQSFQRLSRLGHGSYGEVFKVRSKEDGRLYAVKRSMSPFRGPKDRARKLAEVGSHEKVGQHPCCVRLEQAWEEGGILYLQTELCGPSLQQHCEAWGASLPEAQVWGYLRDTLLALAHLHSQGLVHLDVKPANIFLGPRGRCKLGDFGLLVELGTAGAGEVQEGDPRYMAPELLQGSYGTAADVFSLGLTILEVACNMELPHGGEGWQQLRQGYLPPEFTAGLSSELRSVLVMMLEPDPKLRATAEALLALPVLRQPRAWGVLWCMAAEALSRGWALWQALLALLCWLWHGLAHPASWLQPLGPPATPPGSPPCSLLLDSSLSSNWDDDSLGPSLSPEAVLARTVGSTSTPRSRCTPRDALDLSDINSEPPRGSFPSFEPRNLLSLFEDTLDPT
Chain of Dual specificity mitogen-activated protein kinase kinase 6 (Homo sapiens) (P52564 whole entry, the tested form may be a part): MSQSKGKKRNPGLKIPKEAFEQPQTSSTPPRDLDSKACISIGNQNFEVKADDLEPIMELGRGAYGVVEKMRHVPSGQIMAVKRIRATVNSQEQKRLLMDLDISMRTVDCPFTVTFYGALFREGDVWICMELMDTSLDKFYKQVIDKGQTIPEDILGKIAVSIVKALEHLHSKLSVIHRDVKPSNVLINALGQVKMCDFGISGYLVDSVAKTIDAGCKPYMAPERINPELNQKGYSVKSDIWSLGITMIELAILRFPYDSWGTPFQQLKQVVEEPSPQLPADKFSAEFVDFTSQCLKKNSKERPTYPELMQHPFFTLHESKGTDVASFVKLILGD
Chain of Tyrosine-protein kinase JAK1 (Homo sapiens) (P23458 whole entry, the tested form may be a part): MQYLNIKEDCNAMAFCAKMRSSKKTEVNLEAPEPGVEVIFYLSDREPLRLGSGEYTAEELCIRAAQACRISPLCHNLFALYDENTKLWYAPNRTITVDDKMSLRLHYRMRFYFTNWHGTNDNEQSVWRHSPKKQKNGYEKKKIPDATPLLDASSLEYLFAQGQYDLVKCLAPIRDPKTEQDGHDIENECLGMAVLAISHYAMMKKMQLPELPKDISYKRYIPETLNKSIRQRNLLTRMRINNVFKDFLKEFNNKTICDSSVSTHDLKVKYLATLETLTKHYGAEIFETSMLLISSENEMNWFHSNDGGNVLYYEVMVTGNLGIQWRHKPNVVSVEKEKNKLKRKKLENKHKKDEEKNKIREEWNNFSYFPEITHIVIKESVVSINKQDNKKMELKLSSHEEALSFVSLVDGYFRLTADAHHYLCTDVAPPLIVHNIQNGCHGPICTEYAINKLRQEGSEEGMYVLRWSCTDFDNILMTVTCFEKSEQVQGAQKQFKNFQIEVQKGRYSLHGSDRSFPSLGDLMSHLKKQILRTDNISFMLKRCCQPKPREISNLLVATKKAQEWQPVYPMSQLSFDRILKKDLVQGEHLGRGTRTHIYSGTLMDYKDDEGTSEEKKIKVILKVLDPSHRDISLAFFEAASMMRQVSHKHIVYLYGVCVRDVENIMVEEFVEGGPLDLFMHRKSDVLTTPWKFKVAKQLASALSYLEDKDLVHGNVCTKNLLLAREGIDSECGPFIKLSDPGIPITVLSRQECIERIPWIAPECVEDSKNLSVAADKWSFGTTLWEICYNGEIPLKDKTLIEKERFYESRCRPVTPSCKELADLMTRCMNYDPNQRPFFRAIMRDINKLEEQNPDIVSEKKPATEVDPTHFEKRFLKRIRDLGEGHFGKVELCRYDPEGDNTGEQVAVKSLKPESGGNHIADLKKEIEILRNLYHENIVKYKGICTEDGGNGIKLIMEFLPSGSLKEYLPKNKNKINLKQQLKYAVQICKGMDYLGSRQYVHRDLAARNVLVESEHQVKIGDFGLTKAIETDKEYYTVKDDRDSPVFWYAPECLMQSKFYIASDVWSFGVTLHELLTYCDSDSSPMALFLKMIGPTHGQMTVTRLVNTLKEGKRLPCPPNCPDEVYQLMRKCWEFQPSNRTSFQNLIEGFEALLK

Compound: CC(C)Nc1sc(C(=O)c2ccc(Cl)s2)c(N)c1C#N
- Activity [1]: 100%
- Activity [2]: 74%
- Activity [3]: 100%
- Activity [4]: 84%
- Activity [5]: 59%
- Activity [6]: 63%
- Activity [7]: 66%
- Activity [8]: 76%
- Activity [9]: 59%
- Activity [10]: 100%
- Activity [11]: 89%
- Activity [12]: 55%
- Activity [13]: 100%
- Activity [14]: 78%
- Activity [15]: 100%
- Activity [16]: 100%
- Activity [17]: 82%
- Activity [18]: 97%
- Activity [19]: 75%
- Activity [20]: 100%
- Activity [21]: 97%
- Activity [22]: 78%
- Activity [23]: 100%
- Activity [24]: 62%
